Laboratory results published in paper PMC12216189 (Nature Communications, 2025).
Ends that are not written are not given here.

Columns and labels:
A. baumannii 19606 [1] = assay: Bactericidal assay of kanamycin with/without HNP1, no preincubation; type: cell-based, Acinetobacter baumannii; conditions: 0–100 μg/ml, LB broth, 24 h
A. baumannii 19606 [2] = assay: Biofilm formation assay; type: cell-based, Acinetobacter baumannii; conditions: for Biofilm-enhancing activity of HNP1 mutants (CV staining): HNP1 Ala-scan mutants and analogs, Fig. 6F
Shigella = conditions: sub-lethal concentrations; ref [78]; cited from earlier work
Staphylococcus = conditions: ref [26]; cited from earlier work
A. baumannii 19606 [3] = assay: Real colony count bactericidal assay in LB broth; type: cell-based, Acinetobacter baumannii; conditions: 4 μM
[4] = test system: S. aureus, P. aeruginosa, and A. baumannii; conditions: various bacteria, including S. aureus, ref [24]–[26]; cited from earlier work
[5] = biological target: Fam-A11K-HNP1 (fluorescently labeled synthetic human neutrophil peptide 1) (human); assay: fluorescence polarisation
drug-resistant bacteria = conditions: ref [84]; cited from earlier work
A. baumannii 19606 [6] = assay: Competitive inhibition by recombinant OmpA of HNP1-promoted biofilm formation; type: cell-based, Acinetobacter baumannii; conditions: 0–2 μM OmpA

NC[C@H]1O[C@H](O[C@H]2[C@H](O)[C@@H](O[C@H]3O[C@H](CO)[C@@H](O)[C@H](N)[C@H]3O)[C@H](N)C[C@@H]2N)[C@H](O)[C@@H](O)[C@@H]1O [Kanamycin]
Kanamycin effect on bacterial growth and survival (A. baumannii 19606 [1]): dose-dependently inhibited bacterial growth and survival

AFTCHCRR-SCYSTEYSYGTCTVMGINHRFCCL (disulfide) [HD6]
Effect on biofilm formation (CV staining) (A. baumannii 19606 [2]; 4 μM, A. baumannii 19606): slightly enhanced it

ATCYCRTGRCATRESLSGVCEISGRLYRLCCR (disulfide (positions not given here)) [HD5]
Effect on biofilm formation (CV staining) (A. baumannii 19606 [2]; 4 μM, A. baumannii 19606): slightly enhanced it | Shigella infection of epithelial cells and tissues (Shigella): promotes, at sub-lethal concentrations, Shigella infection

HBD1: human β-defensin (DHYNCVSSGGQCLYSACPIFTKIQGTCYRGKAKCCK; ends and bridges not checked; cysteine pairing not given here; UniProt P60022 33-68, looked up)
Effect on biofilm formation (CV staining) (A. baumannii 19606 [2]; 4 μM, A. baumannii 19606): inactive in promoting biofilm formation

HBD3: human β-defensin 3, cited only (GIINTLQKYYCRVRGGRCAVLSCLPKEEQIGKCSTRGRKCCRRKK; ends and bridges not checked; cysteine pairing not given here; UniProt P81534 23-67, looked up)
Effect on biofilm formation (Staphylococcus): inhibitory against biofilm formation

I6A: HNP1 Ala-substitution mutant
Biofilm-enhancing activity of HNP1 mutants (CV staining) (A. baumannii 19606 [2]): significant decrease in biofilm enhancement

I20A/L25A: HNP1 Ala-substitution mutant
Biofilm-enhancing activity of HNP1 mutants (CV staining) (A. baumannii 19606 [2]): significant decrease in biofilm enhancement

LL37: human cathelicidin (LLGDFFRKSKEKIGKEFKRIVQRIKDFLRNLVPRTES; Antibacterial peptide LL-37; UniProt P49913 134-170, looked up)
Effect on biofilm formation (CV staining) (A. baumannii 19606 [2]; 4 μM, A. baumannii 19606): significantly inhibited biofilm formation | Bacterial killing in LB broth (A. baumannii 19606 [3]): killing of the bacteria even in the presence of LB broth | Effect on biofilm formation [4]: inhibit biofilm formation by various bacteria

OmpA-ΔL1L2 (full-length OmpA with extracellular loops L1 and L2 deleted) (natural protein)
fold decrease of binding against full-length OmpA [5]: 3 fold

R15A: HNP1 Ala-substitution mutant
Biofilm-enhancing activity of HNP1 mutants (CV staining) (A. baumannii 19606 [2]): significant decrease in biofilm enhancement

T18A: HNP1 Ala-substitution mutant
Biofilm-enhancing activity of HNP1 mutants (CV staining) (A. baumannii 19606 [2]): significant decrease in biofilm enhancement

TM-ΔL1L2 (transmembrane domain of OmpA with extracellular loops L1 and L2 deleted) (domain or fragment)
fold decrease of binding against the transmembrane domain of OmpA [5]: 3 fold

VCSCRLVFCRRTELRVGNCLIGGVSFTYCCTRV (disulfide (positions not given here)) [HNP4]
Effect on biofilm formation (CV staining) (A. baumannii 19606 [2]; 0–32 μM, LB broth, 96-well plate, 24 h, 37 °C): largely inactive | Effect on biofilm formation (CV staining) (A. baumannii 19606 [2]; 4 μM, A. baumannii 19606): inactive in promoting biofilm formation

W26A-HNP1: dimerization-debilitating analog
Biofilm-enhancing activity of HNP1 mutants (CV staining) (A. baumannii 19606 [2]): completely lost their biofilm-enhancing activity

colistin
Potentiation of antibacterial activity of classic antibiotics (drug-resistant bacteria): potentiate the antibacterial activity of classic antibiotics

B1: full-length recombinant OmpA (outer membrane protein A) of Acinetobacter baumannii ATCC 19606 (natural protein)
chain: GVTVTPLLLGYTFQDSQHNNGGKDGNLTNGPELQDDLFVGAALGIELTPWLGFEAEYNQVKGDVDGASAGAEYKQKQINGNFYVTSDLITKNYDSKIKPYVLLGAGHYKYDFDGVNRGTRGTSEEGTLGNAGVGAFWRLNDALSLRTEARATYNADEEFWNYTALAGLNVVLGGHLKPAAPVVEVAPVEPTPVAPQPQELTEDLNMELRVFFDTNKSNIKDQYKPEIAKVAEKLSEYPNATARIEGHTDNTGPRKLNERLSLARANSVKSALVNEYNVDASRLSTQGFAWDQPIADNKTKEGRAMNRRVFATITGSRTVVVQPGQEAAAPAAAQ
Kd [5]: 500 nM

B2: OmpA: recombinant A. baumannii outer membrane protein A with His tag (protein)
chain: GVTVTPLLLGYTFQDSQHNNGGKDGNLTNGPELQDDLFVGAALGIELTPWLGFEAEYNQVKGDVDGASAGAEYKQKQINGNFYVTSDLITKNYDSKIKPYVLLGAGHYKYDFDGVNRGTRGTSEEGTLGNAGVGAFWRLNDALSLRTEARATYNADEEFWNYTALAGLNVVLGGHLKPAAPVVEVAPVEPTPVAPQPQELTEDLNMELRVFFDTNKSNIKDQYKPEIAKVAEKLSEYPNATARIEGHTDNTGPRKLNERLSLARANSVKSALVNEYNVDASRLSTQGFAWDQPIADNKTKEGRAMNRRVFATITGSRTVVVQPGQEAAAPAAAQ
modifications: left off: His tag, end not stated, state not stated
Effect of recombinant OmpA on HNP1-promoted biofilm formation (A. baumannii 19606 [6]; 8 μM HNP1): dose-dependently inhibited biofilm formation promoted by HNP1 | Effect of recombinant OmpA on biofilm formation without HNP1 (A. baumannii 19606 [6]; no HNP1): little effect on biofilm formation
